From patent US20110212890A1, “METASTIN DERIVATIVE AND USE THEREOF” (Takeda Pharmaceutical Company Limited, priority 2008, published 2011)
Ahx = NCCCCCC(=O)O

Columns and labels:
male Crl: CD (SD) rats [1] = assay: LH release action in male rat (plasma LH by radioimmunoassay); assay type: in vivo
Procedure: (§1) For male Crl: CD (SD) rats (8 or 10 weeks old), compounds 1 (10 weeks old), 3, 8, 9, 10 and 11 (8 weeks old) (1, 10 or 100 nmol/kg), and metastin (45-54) (PEPTIDE INSTITUTE, INC., 10 or 100 nmol/kg), which were dissolved in physiological saline, were administered subcutaneously to the dorsum. For the control group, a physiological saline was administered subcutaneously to the dorsum. About 0.4 mL of the blood was collected from the tail vein before the administration (0 hour) and after 0.5, 1, 2, 4 hours of the administration of compounds 1, 3, 8, 9, 10 and 11, and metastin (45-54), or physiological saline. The collected blood was well mixed with 12 μL of 10 w/v % EDTA.2Na-containing trasylol solution (Bayer AG), and then separated by centrifugation at 12,000 rpm for 10 minutes, and the supernatant was recovered as the plasma sample. The concentrations of luteinizing hormone (LH) and total testosterone in the plasma were measured with radioimmunoassay (rat LH RIA Immuno-reagent set, National Hormone and Peptide Program, available from Dr. A. F. Parlow, The National Institute of Diabetes and Digestive and Kidney Diseases, and DPC Total Testosterone Kit, Mitsubishi Chemical Formula Iatron, Inc.).

male Crl: CD (SD) rats [2] = assay: Testosterone release action in male rat (plasma total testosterone by radioimmunoassay); assay type: in vivo
Procedure: as §1

[3] = subcutaneous to the dorsum, 1, 10 or 100 nmol/kg, AUC from 0 hour to 4 hours after the administration, vs control group

Row | Substance | degree of increase in LH concentration in the plasma in comparison to metastin (45-54) (male Crl: CD (SD) rats [1]; subcutaneous) | degree of increase in total testosterone concentration in the plasma in comparison to metastin (45-54) (male Crl: CD (SD) rats [2]; subcutaneous) | dose showing (significant) increase in the LH concentration in the plasma (AUC) (male Crl: CD (SD) rats [1]; [3]) [nmol/kg] | dose showing (significant) increase in the total testosterone concentration in the plasma (AUC) (male Crl: CD (SD) rats [2]; [3]) [nmol/kg]
1 | PEG5K(CS)-CO-Acp-Tyr-Asn-Trp-Asn-Ser-Phe-Gly-Leu-Arg-Phe-NH2 ({PEG5K(CS)‑CO-Ahx}-YNWNSFGLRF-NH2) [compound 1] | greater degree of increase | greater degree of increase | – | –
2 | metastin (45-54): peptide consisting of the N-terminal 45th-54th amino acid sequence of human metastin (SEQ ID NO: 16); PEPTIDE INSTITUTE, INC. (YNWNSFGLRF) | – | – | 100 | 100
